This is an account of results in US11174282B2, “Aminosteroid derivatives and process for producing same” (UNIVERSITÉ LAVAL, priority 2016, dated 2021).

“Also recorded” adds a separate entry of the source. Like-named read-outs stand apart in the source and are kept apart here. A value given as a limit tells only on which side of the number the result lay.

Series [1] relates to LAPC-4 (prostate cancer) cells. Put plainly: Cell proliferation assay (MTS), LAPC-4. Particulars: read-out: IC50 (μM) Prostate cancer LAPC-4. Type of series: cell-based. How it is done: (§1) The different aminosteroids were dissolved in methanol (50 mM).
Series [2] concerns OVCAR-3 cells (ovarian cancer). Put plainly: Cell proliferation assay (MTS), OVCAR-3. The class given is cell-based. The conditions noted are these: for IC50: read-out: IC50 (μM) Ovarian cancer OVCAR-3; for antiproliferative activity relative to RM-133, OVCAR-3: fold of RM-133 activity (>1 = more active). On the procedure:
as §1

The test system of series [3] is Human pancreas cancer cells (PANC-1). Briefly: Cell proliferation assay (MTS), PANC-1. Particulars: for IC50: read-out: IC50 (μM) Pancreatic cancer PANC-1; for antiproliferative activity relative to RM-133, PANC-1: fold of RM-133 activity (>1 = more active). The class given is cell-based. How it is done:
as §1

Series [4] concerns HL-60 (acute promyelocytic leukemia) cells. Briefly: Cell proliferation assay (MTS), HL-60. Type of series: cell-based. Particulars: for IC50: read-out: IC50 (μM) HL-60 (leukemia); for antiproliferative activity relative to RM-133, HL-60: fold of RM-133 activity (>1 = more active). On the procedure:
as §1

Series [5] deals with primary ovary normal cells. Briefly: cells. The conditions noted are these: for Selectivity Index Ovary: IC50 normal cells/IC50 cancer cells (primary ovary / OVCAR-3). Type of series: cell-based, human. How it is done: as §1
The subject of series [6] is renal proximal tubule epithelial cells (RPTEC). Briefly: Toxicity on normal cells (MTS), RPTEC. Type of series: cell-based, human. On the procedure:
as §1

Series [7] has as its system PANC-1, BxPC-3, Hs766, OVCAR-3, Caov3, SKOV3, MCF-7, T-47D and LAPC-4 cell lines. Briefly: Cytotoxic activity screening at 5 and 1 μM on cancer cell lines. The conditions noted are these: independently of the cancer cell line tested, result in words.
Method: The cell proliferation assay was performed using 3-(4,5-dimethylthiazol-2-yl)-5-(3-carboxymethoxyphenyl)2-(4-sulfophenyl)-2H-tetrazolium (MTS) (Cell Titer 96 Aqueous, Promega, Nepean, ON, Canada) as previously described [3, 4, 5]. Briefly, cells were plated in triplicate in 96-well plates (1×10^4 cells/well) in appropriate culture medium (total of 90 μL). Before each treatment, the cells were incubated at 37° C. in a 5% CO2 humidified atmosphere for 24 h. The different aminosteroids were dissolved in methanol (50 mM). The stock solutions were diluted at multiple concentrations with culture media in order to obtain the desired final concentration followed by the addition of 10 μL to each well, and the mixture incubated for 3 days. Following treatment, MTS (10 μL) was added to each well and the mixture was incubated for 4 h.
Series [8] deals with primary pancreas normal cells. Put plainly: Toxicity on normal cells (MTS), primary pancreas. Particulars: for Selectivity Index Pancreas: IC50 normal cells/IC50 cancer cells (primary pancreas / PANC-1); for IC50: human normal cells. Type of series: cell-based, human. How it is done: as §1
For series [9] the following is noted: human, 1 h, 10 μM, pH 7.4.
Method: (§2) Assays were performed at 37° C. for 1 h, with or without 10 mM NADPH in the presence of 40 μg of human liver microsome from Corning (Melrose, Mass., USA) and 10 μM of aminosteroid substrate in a final 100 μL volume of 50 mM Tris buffer (pH 7.4) supplemented with 10 mM MgCl2. Assays were ended by adding 100 μL of MeOH followed by centrifugation at 13,000 g for 10 min to obtain a pellet of proteins. The supernatant of 2 assays was pooled and submitted to HPLC-MS analysis (Shimadzu LCMS-2020 APCI, Alltima HP C18 (250 mm×4.6 mm, 5 μm) column, MeOH:H2O gradient). Remaining substrate (expressed in %) was calculated by dividing the area under the curve of the substrate for the assays without NADPH by the area under the curve of the substrate for the assays with NADPH and multiplied by 100. Values represent the average of 2 independent experiments.
For series [10], the system named is primary pancreas, primary ovary and renal proximal tubule epithelial cells (RPTEC). Put plainly: Toxicity on the normal cell types tested. The conditions noted are these: higher concentration tested 50 μM.
Method: Human primary epithelial pancreas and ovary cells were obtained from Cedarlane (Chicago, Ill., USA) and were cultured in the manufacturer recommended medium. Human renal proximal tubule epithelial cells (RPTEC) were obtained from Lonza (Mississauga, ON, Canada) and were maintained in DMEM-F12 supplemented as previously reported [4]. The cell lines were all maintained under a 5% CO2 humidified atmosphere at 37° C. and the culture medium was changed every 2 to 3 days and the cells were split once a week to maintain cell propagation.
The cell proliferation assay was performed using 3-(4,5-dimethylthiazol-2-yl)-5-(3-carboxymethoxyphenyl)2-(4-sulfophenyl)-2H-tetrazolium (MTS) (Cell Titer 96 Aqueous, Promega, Nepean, ON, Canada) as previously described [3, 4, 5]. Briefly, cells were plated in triplicate in 96-well plates (1×10^4 cells/well) in appropriate culture medium (total of 90 μL). Before each treatment, the cells were incubated at 37° C. in a 5% CO2 humidified atmosphere for 24 h. The different aminosteroids were dissolved in methanol (50 mM). The stock solutions were diluted at multiple concentrations with culture media in order to obtain the desired final concentration followed by the addition of 10 μL to each well, and the mixture incubated for 3 days. Following treatment, MTS (10 μL) was added to each well and the mixture was incubated for 4 h. […] Selectivity was calculated by dividing the IC50 obtained for a specific primary cell by the IC50 for the related cancer cell line.
The nature of series [11]: Metabolic stability assay, human liver microsomes. Particulars: 1 h; for increased metabolic stability relative to RM-133: human hepatic microsomes. (In general: Liver microsomes are a subcellular fraction often used to study metabolism.)
Method: as §2
Series [12] has as its system PC-3 (prostate cancer) cells. Put plainly: Cell proliferation assay (MTS), PC-3. The class given is cell-based. Particulars: 72 h; 3 days treatment, MTS; read-out: IC50 (μM) Prostate cancer PC-3. How it is done: as §1
Series [13] relates to LNCaP (prostate cancer) cells. Put plainly: Cell proliferation assay (MTS), LNCaP. Type of series: cell-based. Particulars: Homo sapiens, 72 h, 3 days treatment, MTS, read-out: IC50 (μM) Prostate cancer LNCaP. On the procedure: as §1
The subject of series [14] is MCF-7 breast cancer cells. Briefly: Cell proliferation assay (MTS), MCF-7. Type of series: cell-based, human. The conditions noted are these: Homo sapiens, MCF7, 72 h, 3 days treatment. How it is done: as §1
The subject of series [15] is T-47D breast cancer cell line. Put plainly: Cell proliferation assay (MTS), T-47D. Type of series: cell-based. The conditions noted are these: Homo sapiens, T47D, 72 h; 3 days treatment, MTS. How it is done: as §1
Setting [16] is: Homo sapiens, OVCAR-3, 72 h, 3 days treatment, MTS.
Setting [17] is: Homo sapiens, HL-60, 72 h, 3 days treatment, MTS.
The mark [18] stands for this setting: human normal cells, read-out: IC50 (μM) Primary Ovary (normal cells).
The mark [19] stands for this setting: normal (kidney) cells, read-out: IC50 (μM) RPTEC (normal cells).

For orientation: IC50 means the midpoint of a concentration-inhibition curve. Take `C#C[C@@]1(O)CC[C@H]2[C@@H]3CCc4cc(OC(=O)N(C)C)c(N5CCN(C(=O)[C@@H]6CCCN6C(=O)c6ccc7ccccc7n6)CC5)cc4[C@H]3CC[C@@]21C` [Compound 1, (17β)-17-ethynyl-17-hydroxy-2-{4-[1-(quinolin-2-ylcarbonyl)-L-prolyl]piperazin-1-yl}estra-1,3,5(10)-trien-3-yl dimethylcarbamate]: the IC50 in series [1] (Homo sapiens, LAPC4, 72 h) is 1.3 µM; in series [2] (Homo sapiens, OVCAR-3, 72 h), 6.4 µM; in series [3] (Homo sapiens, PANC-1, 72 h), 9.6 µM; in series [4] (Homo sapiens, HL-60, 72 h) it was 4.3 µM; in [5] (Homo sapiens, read-out: IC50 (μM) Normal Cells Ovary), at least 50 µM; in series [6] (Homo sapiens, RPTEC, read-out: IC50 (μM) Normal Cells Kidney) it was at least 50 µM. In addition, the “cytotoxic activity in screening (cell survival)” value (shortened to “cytotoxic activity in screening”) in series [7] is “only slight differences in their respective levels of activity”.

Regarding `C#C[C@@]1(O)CC[C@H]2[C@@H]3CC[C@H]4C[C@H](OC(=O)N(C)C)[C@@H](N5CCN(C(=O)[C@@H]6CCCN6C(=O)c6ccc7ccccc7n6)CC5)C[C@]4(C)[C@H]3CC[C@@]21C` [3 (3-carbamate), (2β,3α,5α,17α)-17-hydroxy-2-{4-[1-(quinolin-2-ylcarbonyl)-L-prolyl]piperazin-1-yl}pregn-20-yn-3-yl dimethylcarbamate], the IC50 is 20 µM in [2] (setting [16]); 9.99 µM in series [3] (Homo sapiens, PANC-1, 72 h, 3 days treatment, MTS); 7.95 µM in series [4] (setting [17]); above 50 µM in series [5] (setting [18]); 24.2 µM in [6] (Homo sapiens, RPTEC, normal (kidney) cells, read-out: IC50 (μM) RPTEC (normal cells)); above 50 µM in series [8]. Moreover, the “antiproliferative activity relative to RM-133, OVCAR-3” value in series [2] worked out at 0.3 fold. The “antiproliferative activity relative to RM-133, PANC-1” value in series [3] stood at 0.7 fold. In addition, in series [4], the “antiproliferative activity relative to RM-133, HL-60” value is listed as 0.9 fold. Further, the “Selectivity Index Ovary” value in [5] was above 2.5. Also, in [8], the “Selectivity Index Pancreas” value was above 5.0. Moreover, in series [9] (microsomes), the “increased metabolic stability relative to RM-133” value amounted to 5.9 fold. Also, the “toxicity on the normal cell types tested” value in series [10] is recorded as “very low toxicity; also recorded: no cytotoxicity was observed”.

For `C#Cc1cc2c(cc1N1CCN(C(=O)[C@@H]3CCCN3C(=O)c3ccc4ccccc4n3)CC1)[C@H]1CC[C@@]3(C)[C@@H](CC[C@@]3(O)C#C)[C@@H]1CC2` [Compound 17a, {4-[(17β)-3,17-diethynyl-17-hydroxyestra-1,3,5(10)-trien-2-yl]piperazin-1-yl}[(2S)-1-(quinolin-2-ylcarbonyl)pyrrolidin-2-yl]methanone], the “cytotoxic activity in screening” value in series [7] is “only slight differences in their respective levels of activity”.

In the case of `C#C[C@@]1(O)CC[C@H]2[C@@H]3CCc4cc(OC(=O)N(CC)CC)c(N5CCN(C(=O)[C@@H]6CCCN6C(=O)c6ccc7ccccc7n6)CC5)cc4[C@H]3CC[C@@]21C` [Compound 2, (17β)-17-ethynyl-17-hydroxy-2-{4-[1-(quinolin-2-ylcarbonyl)-L-prolyl]piperazin-1-yl}estra-1,3,5(10)-trien-3-yl diethylcarbamate], in series [7], the “cytotoxic activity in screening” value was “marked weaker cytotoxic activity; also recorded: significant losses of activity”.

In the case of `C#C[C@@]1(O)CC[C@H]2[C@@H]3CC[C@H]4C[C@H](OC(C)=O)[C@H](N5CCN(C(=O)[C@@H]6CCCN6C(=O)c6ccc7ccccc7n6)CC5)C[C@]4(C)[C@H]3CC[C@@]21C` [4 (3-ester), (2α,3α,5α,17α)-17-hydroxy-2-{4-[1-(quinolin-2-ylcarbonyl)-L-prolyl]piperazin-1-yl}pregn-20-yn-3-yl acetate], the IC50 was 3.83 µM in [2] (3 days treatment, MTS); 6.24 µM in series [3] (3 days treatment, MTS); 6.44 µM in [4] (3 days treatment, MTS); 42 µM in series [5] (setting [18]); 32.1 µM in series [6] (setting [19]); 30.1 µM in series [8]. For the same compound, in series [2], the “antiproliferative activity relative to RM-133, OVCAR-3” value turned out to be 1.4 fold. The “antiproliferative activity relative to RM-133, PANC-1” value in series [3] turned out to be 1.1 fold. The “antiproliferative activity relative to RM-133, HL-60” value in [4] is recorded as 1.1 fold. Moreover, in [5], the “Selectivity Index Ovary” value worked out at 11.0. Besides, the “Selectivity Index Pancreas” value in series [8] is listed as 4.8. The “toxicity on the normal cell types tested” value in series [10] is recorded as “very low toxicity”. Also, the “increased metabolic stability relative to RM-133” value in series [11] worked out at 3.1 fold.

As to `C#C[C@@]1(O)CC[C@H]2[C@@H]3CCc4cc(OC(C)=O)c(N5CCN(C(=O)[C@@H]6CCCN6C(=O)c6ccc7ccccc7n6)CC5)cc4[C@H]3CC[C@@]21C` [Compound 3, (17β)-17-ethynyl-17-hydroxy-2-{4-[1-(quinolin-2-ylcarbonyl)-L-prolyl]piperazin-1-yl}estra-1,3,5(10)-trien-3-yl acetate], the IC50 in series [12] turned out to be 1.4 ± 0.3 µM; in series [1] (3 days treatment, MTS) it was 0.6 µM; in series [1] (Homo sapiens, LAPC4, 72 h, 3 days treatment, MTS), 0.5 ± 0.4 µM; in series [13], 0.8 ± 0.3 µM; in series [14], 1.4 ± 0.1 µM; in series [15] it was 0.4 ± 0.2 µM. For the same compound, the IC50 in series [2] (3 days treatment, MTS) is 3.4 µM; in series [2] (setting [16]), 3.9 ± 0.4 µM; in [4] (setting [17]) it was 4.3 µM; in [5] (relative toxicity on human normal cells, read-out: IC50 (μM) Normal Cells Ovary) it was at least 50 µM; in series [6] (Homo sapiens, RPTEC, relative toxicity on human normal cells, read-out: IC50 (μM) Normal Cells Kidney), at least 50 µM. For the same compound, the “phenolic metabolite RM-581-OH (stability of potential prodrugs to hydrolysis)” value in series [9] is given as “no trace of the phenolic metabolite RM-581-OH could be observed”. The “toxicity on the normal cell types tested” value in [10] was “did not trigger any loss of cell viability even at concentrations as high as 50 μM”.

With `C#CC1(O)CCC2C3CCC4CC(O)C([N+]5([O-])CCN(C(=O)C6CCCN6C(=O)c6ccc7ccccc7n6)CC5)CC4(C)C3CCC21C` [7 (N-oxime), {4-[(2β,3α,5α,17α)-3,17-dihydroxypregn-20-yn-2-yl]-4-oxidopiperazin-1-yl}[(2S)-1-(quinolin-2-ylcarbonyl)pyrrolidin-2-yl]methanone], the IC50 in [2] (3 days treatment, MTS) is 29.9 µM; in [3] (3 days treatment, MTS) it was above 50 µM; in series [4] (3 days treatment, MTS), 43.7 µM. Also, the “antiproliferative activity relative to RM-133, OVCAR-3” value in series [2] is “significant loss of activity”. The “antiproliferative activity relative to RM-133, PANC-1” value in series [3] is “significant loss of activity”. The “antiproliferative activity relative to RM-133, HL-60” value in series [4] is “significant loss of activity”. The “increased metabolic stability relative to RM-133” value in series [11] turned out to be 2.6 fold.

As for `C#C[C@@]1(O)CC[C@H]2[C@@H]3CCc4cc(C(C)O)c(N5CCN(C(=O)[C@@H]6CCCN6C(=O)c6ccc7ccccc7n6)CC5)cc4[C@H]3CC[C@@]21C` (stereo partly drawn) [Compound 18, {4-[(17β)-17-ethynyl-17-hydroxy-3-(1-hydroxyethyl)estra-1,35(10)-trien-2-yl]piperazin-1-yl}[(2S)-1-(quinolin-2-ylcarbonyl)pyrrolidin-2-yl]methanone], the “metabolic stability (% of remaining compound)” value in series [11] (10 μM, 40 μg human liver microsomes, result in words) is given as “slightly lower values”. The “cytotoxic activity in screening” value in series [7] was “only slight differences in their respective levels of activity”.

Consider `C#C[C@]1(OC(C)=O)CC[C@H]2[C@@H]3CC[C@H]4C[C@H](OC(C)=O)[C@@H](N5CCN(C(=O)[C@@H]6CCCN6C(=O)c6ccc7ccccc7n6)CC5)C[C@]4(C)[C@H]3CC[C@@]21C` [5 (3,17-diester), (2β,3α,5α,17α)-2-{4-[1-(quinolin-2-ylcarbonyl)-L-prolyl]piperazin-1-yl}pregn-20-yne-3,17-diyl diacetate], for which the IC50 in series [2] (3 days treatment, MTS) was determined as 13.1 µM; in series [3] (3 days treatment, MTS), 25 µM; in series [4] (3 days treatment, MTS), 6.44 µM; in series [5] (setting [18]), 25.4 µM; in series [6] (setting [19]), 45.5 µM; in [8], 16.6 µM. In addition, in series [2], the “antiproliferative activity relative to RM-133, OVCAR-3” value is 0.4 fold. In addition, in series [3], the “antiproliferative activity relative to RM-133, PANC-1” value is 0.3 fold. The “antiproliferative activity relative to RM-133, HL-60” value in series [4] is recorded as “activity similar to RM-133”. Also, in [10], the “toxicity on the normal cell types tested” value is “increased toxicity relative to the mono-ester derivative 4”. The “increased metabolic stability relative to RM-133” value in series [11] is listed as 3.5 fold.
